Laboratory results reported in the supplement of paper PMC10307832.

Assays:
Assay in all cases: relative viability (nuclei count vs DMSO), 5 days (fraction); higher = more cells survive
Selisistat + Phenformin = compound: C1CC(C2=C(C1)C3=C(N2)C=CC(=C3)Cl)C(=O)N [Selisistat] + N=C(N)NC(=N)NCCc1ccccc1 [Phenformin] (partner 250 µM)
Method in brief: (§1)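 Lung cancer cell lines in 1536-well plates were dosed by pin tool the day after seeding, either with one drug alone or with a fixed anchor-drug dose plus five library-drug doses (not always all listed) in √10 steps. After 5 days, cells were fixed and their nuclei stained in one step (final 0.05% Triton X-100, 1% formaldehyde, 1 ug/ml Hoechst), then counted on 4× images. Relative viability is the nuclei count in treated wells divided by that in vehicle wells. Values are medians of duplicate plates.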

Serdemetan + Vorinostat = compound: c1ccc2c(CCNc3ccc(Nc4ccncc4)cc3)c[nH]c2c1 [Serdemetan] + O=C(CCCCCCC(=O)Nc1ccccc1)NO [Vorinostat] (partner 1 µM)
Method in brief: as §1

Serdemetan + Trametinib = compound: c1ccc2c(CCNc3ccc(Nc4ccncc4)cc3)c[nH]c2c1 [Serdemetan] + CC(=O)Nc1cccc(-n2c(=O)n(C3CC3)c(=O)c3c(Nc4ccc(I)cc4F)n(C)c(=O)c(C)c32)c1 [Trametinib] (partner 0.02 µM)
Method in brief: as §1

Serdemetan + Pictilisib = compound: c1ccc2c(CCNc3ccc(Nc4ccncc4)cc3)c[nH]c2c1 [Serdemetan] + CS(=O)(=O)N1CCN(Cc2cc3nc(-c4cccc5[nH]ncc45)nc(N4CCOCC4)c3s2)CC1 [Pictilisib] (partner 1 µM)
Method in brief: as §1

Cell Line	relative viability (Selisistat + Phenformin; first compound 0.4 µM)	relative viability (Selisistat + Phenformin; first compound 1.265 µM)	relative viability (Selisistat + Phenformin; first compound 4 µM)	relative viability (Selisistat + Phenformin; first compound 12.65 µM)	relative viability (Selisistat + Phenformin; first compound 40 µM)	relative viability (Serdemetan + Vorinostat; first compound 0.04 µM)	relative viability (Serdemetan + Vorinostat; first compound 0.1265 µM)	relative viability (Serdemetan + Vorinostat; first compound 0.4 µM)	relative viability (Serdemetan + Vorinostat; first compound 4 µM)	relative viability (Serdemetan + Trametinib; first compound 0.04 µM)	relative viability (Serdemetan + Trametinib; first compound 0.1265 µM)	relative viability (Serdemetan + Trametinib; first compound 0.4 µM)	relative viability (Serdemetan + Trametinib; first compound 4 µM)	relative viability (Serdemetan + Pictilisib; first compound 0.04 µM)	relative viability (Serdemetan + Pictilisib; first compound 0.1265 µM)	relative viability (Serdemetan + Pictilisib; first compound 0.4 µM)	relative viability (Serdemetan + Pictilisib; first compound 1.265 µM)	relative viability (Serdemetan + Pictilisib; first compound 4 µM)	relative viability (Serdemetan + Vorinostat; first compound 1.265 µM)	relative viability (Serdemetan + Trametinib; first compound 1.265 µM)
NCI-H23	0.731	0.824	0.658	0.773	0.786	0.664	0.695	0.643	0.517	0.354	0.399	0.426	0.363	0.536	0.571	0.459	0.439	0.543	–	–
NCI-H322M	0.768	0.837	0.656	0.77	0.915	0.798	0.906	0.857	0.854	0.502	0.528	0.488	0.431	0.519	0.505	0.468	0.552	0.516	0.806	0.427
NCI-H358	0.358	0.281	0.186	0.332	0.412	0.677	0.689	0.612	0.461	0.135	0.144	0.12	0.109	0.364	0.368	0.332	0.281	0.317	0.402	0.0947
NCI-H441	0.801	0.799	0.698	0.779	0.8	0.795	0.71	0.765	0.436	0.462	0.508	0.436	0.414	0.486	0.481	0.418	0.277	0.384	0.479	0.435
NCI-H460	0.598	0.565	0.366	0.495	0.571	0.595	0.435	0.296	0.0723	0.0926	0.172	0.134	0.0554	0.339	0.366	0.27	0.287	0.253	0.0775	0.0472
NCI-H520	0.598	0.485	0.577	0.533	0.528	0.785	0.688	0.683	0.548	0.632	0.65	0.623	0.428	0.283	0.327	0.321	0.269	0.272	0.438	0.57
NCI-H596	0.742	0.816	0.584	0.593	0.716	0.568	0.543	0.578	0.425	0.894	0.883	0.618	0.517	0.41	0.411	0.346	0.332	0.339	0.428	0.526
NCI-H647	0.561	0.499	0.43	0.324	0.678	0.517	0.693	0.645	0.483	0.482	0.475	0.558	0.304	0.359	0.313	0.499	0.392	0.445	0.516	0.361
NCI-H650	0.499	0.432	0.441	0.432	0.485	0.352	0.478	0.51	0.46	0.891	0.937	0.986	0.612	0.743	0.778	0.977	0.793	0.746	0.405	0.903
NCI-H661	0.27	0.263	0.282	0.286	0.251	0.77	0.793	0.738	0.752	0.551	0.603	0.621	0.517	0.589	0.356	0.383	0.342	0.361	0.712	0.512
NCI-H727	0.564	0.534	–	0.398	0.478	1.3	1.12	1.12	0.849	0.376	0.37	0.367	0.33	0.327	0.421	0.412	0.346	0.299	1.28	0.382
NCI-H838	0.62	0.478	0.346	0.547	0.57	0.729	0.69	0.684	0.696	0.47	0.538	0.555	0.575	0.395	0.508	0.507	0.438	0.549	0.728	0.526
NCI-H1355	0.488	0.486	0.433	0.465	0.462	0.654	0.688	0.632	0.541	0.411	0.478	0.367	0.374	0.456	0.491	0.405	0.445	0.435	0.617	0.394
NCI-H1395	0.509	0.432	0.427	0.42	0.42	0.574	0.848	0.696	0.508	0.982	0.954	0.972	0.586	0.574	0.619	0.676	0.485	0.475	0.526	0.904
NCI-H1437	0.354	0.317	0.278	0.29	0.308	0.771	0.786	0.79	0.616	0.466	0.527	0.526	0.424	0.469	0.409	0.454	0.492	0.342	0.623	0.372
NCI-H1650	0.375	0.448	0.336	0.361	0.465	0.406	0.663	0.518	0.42	0.58	0.633	0.49	0.516	0.57	0.585	0.475	0.41	0.441	0.291	0.611
NCI-H1651	0.381	0.293	0.274	0.307	0.284	0.573	0.386	0.509	0.336	0.848	0.784	0.775	0.256	0.434	0.496	0.433	0.456	0.23	0.492	0.433
